Assays:
CYP3A4 = CYP3A4 (Homo sapiens, UniProt P08684); test: Cytochrome P450 (CYP450) Inhibition Assay, CYP3A4 (Vivid fluorescence, BOMCC substrate); conditions: human, P450 Baculosomes (recombinant CYP3A4), probe BOMCC (Vivid substrate)
Sequence of CYP3A4 (P08684 whole entry): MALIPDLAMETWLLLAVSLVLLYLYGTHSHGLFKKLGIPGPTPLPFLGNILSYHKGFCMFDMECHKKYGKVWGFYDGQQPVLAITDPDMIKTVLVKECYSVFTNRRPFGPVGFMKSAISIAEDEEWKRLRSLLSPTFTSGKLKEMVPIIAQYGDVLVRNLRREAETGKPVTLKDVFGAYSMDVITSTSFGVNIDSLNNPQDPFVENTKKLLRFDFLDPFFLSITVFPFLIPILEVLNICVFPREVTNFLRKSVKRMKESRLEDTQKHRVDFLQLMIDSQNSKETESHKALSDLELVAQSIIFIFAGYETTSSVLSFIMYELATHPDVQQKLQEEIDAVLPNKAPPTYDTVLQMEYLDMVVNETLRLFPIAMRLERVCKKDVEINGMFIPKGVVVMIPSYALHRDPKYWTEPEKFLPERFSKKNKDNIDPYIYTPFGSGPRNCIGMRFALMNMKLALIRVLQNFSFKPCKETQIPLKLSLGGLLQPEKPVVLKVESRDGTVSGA

melting point [°C] | inhibition at 10 µM (CYP3A4) [%] | Structure (SMILES)
237 to 239 | < 50 | COCC(=O)Nc1cccc2c1C1(COc3cc4c(cc31)OCCO4)C(=O)N2C (stereo not drawn) [Example 16.28, 2-methoxy-N-(1′-methyl-2′-oxo-1′,2,2′,3-tetrahydrospiro[furo[2,3-g][1,4]benzodioxine-8,3′-indol]-4′-yl)acetamide]
224 to 226 | < 50 | CCC(=O)Nc1cccc2c1C1(COc3cc4c(cc31)OCCO4)C(=O)N2C (stereo not drawn) [Example 16.29, N-(1′-methyl-2′-oxo-1′,2,2′,3-tetrahydrospiro[furo[2,3-g][1,4]benzodioxine-8,3′-indol]-4′-yl)propanamide]
182 to 183 | < 50 | CCCCC(=O)Nc1cccc2c1C1(COc3cc4c(cc31)OCCO4)C(=O)N2C (stereo not drawn) [Example 16.30, N-(1′-methyl-2′-oxo-1′,2,2′,3-tetrahydrospiro[furo[2,3-g][1,4]benzodioxine-8,3′-indol]-4′-yl)pentanamide]
182 to 184 | < 50 | CN1C(=O)C2(COc3cc4c(cc32)OCCO4)c2c(NC(=O)C(C)(C)C)cccc21 (stereo not drawn) [Example 16.31, 2,2-dimethyl-N-(1′-methyl-2′-oxo-1′,2,2′,3-tetrahydrospiro[furo[2,3-g][1,4]benzodioxine-8,3′-indol]-4′-yl)propanamide]
151 to 153 | < 50 | CCCCCC(=O)Nc1cccc2c1C1(COc3cc4c(cc31)OCCO4)C(=O)N2C (stereo not drawn) [Example 16.32, N-(1′-methyl-2′-oxo-1′,2,2′,3-tetrahydrospiro[furo[2,3-g][1,4]benzodioxine-8,3′-indol]-4′-yl)hexanamide]
123 to 124 | > 50 | CCCCCCC(=O)Nc1cccc2c1C1(COc3cc4c(cc31)OCCO4)C(=O)N2C (stereo not drawn) [Example 16.33, N-(1′-methyl-2′-oxo-1′,2,2′,3-tetrahydrospiro[furo[2,3-g][1,4]benzodioxine-8,3′-indol]-4′-yl)heptanamide]
122 to 123 | < 50 | COCCOCC(=O)Nc1cccc2c1C1(COc3cc4c(cc31)OCCO4)C(=O)N2C (stereo not drawn) [Example 16.34, 2-(2-methoxyethoxy)-N-(1′-methyl-2′-oxo-1′,2,2′,3-tetrahydrospiro[furo[2,3-g][1,4]benzodioxine-8,3′-indol]-4′-yl)acetamide]
154 to 155 | > 50 | CCCCCCNC(=O)Nc1cccc2c1C1(COc3cc4c(cc31)OCCO4)C(=O)N2C (stereo not drawn) [Example 16.35, 1-hexyl-3-(1′-methyl-2′-oxo-1′,2,2′,3-tetrahydrospiro[furo[2,3-g][1,4]benzodioxine-8,3′-indol]-4′-yl)urea]
133 to 135 | < 50 | CN1C(=O)C2(COc3cc4c(cc32)OCCO4)c2c(NC(=O)NC3CCCC3)cccc21 (stereo not drawn) [Example 16.36, 1-cyclopentyl-3-(1′-methyl-2′-oxo-1′,2,2′,3-tetrahydrospiro[furo[2,3-g][1,4]benzodioxine-8,3′-indol]-4′-yl)urea]
175 to 177 | < 50 | CN1C(=O)C2(COc3cc4c(cc32)OCCO4)c2c(NC(=O)NC3CCCCC3)cccc21 (stereo not drawn) [Example 16.37, 1-cyclohexyl-3-(1′-methyl-2′-oxo-1′,2,2′,3-tetrahydrospiro[furo[2,3-g][1,4]benzodioxine-8,3′-indol]-4′-yl)urea]
139 to 140 | < 50 | CN1C(=O)C2(COc3cc4c(cc32)OCCO4)c2c(C(=O)NC3CCCCC3)cccc21 (stereo not drawn) [Example 16.38, N-cyclohexyl-1′-methyl-2′-oxo-1′,2,2′,3-tetrahydrospiro[furo[2,3-g][1,4]benzodioxine-8,3′-indole]-4′-carboxamide]
135 to 136 | < 50 | CN1C(=O)C2(COc3cc4c(cc32)OCCO4)c2c(C(=O)NC3CCCC3)cccc21 (stereo not drawn) [Example 16.39, N-cyclopentyl-1′-methyl-2′-oxo-1′,2,2′,3-tetrahydrospiro[furo[2,3-g][1,4]benzodioxine-8,3′-indole]-4′-carboxamide]
242 to 244 | < 50 | CN1C(=O)C2(COc3cc4c(cc32)OCCO4)c2c(C(=O)N3CCCC3)cccc21 (stereo not drawn) [Example 16.41, 1′-methyl-4′-(pyrrolidin-1-ylcarbonyl)-2,3-dihydrospiro[furo[2,3-g][1,4]benzodioxine-8,3′-indol]-2′(1′H)-one]
191 to 193 | < 50 | CCCCCNC(=O)c1cccc2c1C1(COc3cc4c(cc31)OCCO4)C(=O)N2C (stereo not drawn) [Example 16.42, 1′-methyl-2′-oxo-N-pentyl-1′,2,2′,3-tetrahydrospiro[furo[2,3-g][1,4]benzodioxine-8,3′-indole]-4′-carboxamide]
97 to 100 | < 50 | COCCNC(=O)c1cccc2c1C1(COc3cc4c(cc31)OCCO4)C(=O)N2C (stereo not drawn) [Example 16.43, N-(2-methoxyethyl)-1′-methyl-2′-oxo-1′,2,2′,3-tetrahydrospiro[furo[2,3-g][1,4]benzodioxine-8,3′-indole]-4′-carboxamide]
149 to 150 | < 50 | CN1C(=O)C2(COc3cc4c(cc32)OCCO4)c2c(C(=O)NCc3ccc(F)cc3)cccc21 (stereo not drawn) [Example 16.44, N-(4-fluorobenzyl)-1′-methyl-2′-oxo-1′,2,2′,3-tetrahydrospiro[furo[2,3-g][1,4]benzodioxine-8,3′-indole]-4′-carboxamide]
172 to 173 | > 50 | CCCCCCNC(=O)c1cccc2c1C1(COc3cc4c(cc31)OCCO4)C(=O)N2C (stereo not drawn) [Example 16.45, N-hexyl-1′-methyl-2′-oxo-1′,2,2′,3-tetrahydrospiro[furo[2,3-g][1,4]benzodioxine-8,3′-indole]-4′-carboxamide]
214 to 215 | < 50 | CN1C(=O)C2(COc3cc4c(cc32)OCCO4)c2c(C(=O)NCc3ccccn3)cccc21 (stereo not drawn) [Example 16.46, 1′-methyl-2′-oxo-N-(pyridin-2-ylmethyl)-1′,2,2′,3-tetrahydrospiro[furo[2,3-g][1,4]benzodioxine-8,3′-indole]-4′-carboxamide]
> 250 | < 50 | CN1C(=O)C2(COc3cc4c(cc32)OCCO4)c2c(C(=O)Nc3ccc(F)cc3)cccc21 (stereo not drawn) [Example 16.47, N-(4-fluorophenyl)-1′-methyl-2′-oxo-1′,2,2′,3-tetrahydrospiro[furo[2,3-g][1,4]benzodioxine-8,3′-indole]-4′-carboxamide]
243 to 245 | < 50 | Nc1cccc2c1C1(COc3cc4c(cc31)OCCO4)C(=O)N2Cc1ncccc1C(F)(F)F (stereo not drawn) [Example 16.50, 4′-amino-1′-{[3-(trifluoromethyl)pyridin-2-yl]methyl}-2,3-dihydrospiro[furo[2,3-g][1,4]benzodioxine-8,3′-indol]-2′(1′H)-one]
> 250 | < 50 | O=C1Nc2cccc(O)c2C12COc1cc3c(cc12)OCCO3 (stereo not drawn) [Example 16.51, 4′-hydroxy-2,3-dihydrospiro[furo[2,3-g][1,4]benzodioxine-8,3′-indol]-2′(1′H)-one]
> 250 | < 50 | CN1C(=O)C2(COc3cc4c(cc32)OCCO4)c2c(O)cccc21 (stereo not drawn) [Example 16.52, 4′-hydroxy-1′-methyl-2,3-dihydrospiro[furo[2,3-g][1,4]benzodioxine-8,3′-indol]-2′(1′H)-one]
219 to 221 | > 50 | CN1C(=O)C2(COc3cc4c(cc32)OCCO4)c2c(Oc3ccccn3)cccc21 (stereo not drawn) [Example 16.53, 1′-methyl-4′-(pyridin-2-yloxy)-2,3-dihydrospiro[furo[2,3-g][1,4]benzodioxine-8,3′-indol]-2′(1′H)-one]
109 to 110 | < 50 | COCCOCCOc1cccc2c1C1(COc3cc4c(cc31)OCCO4)C(=O)N2C (stereo not drawn) [Example 16.54, 4′-[2-(2-methoxyethoxy)ethoxy]-1′-methyl-2,3-dihydrospiro[furo[2,3-g][1,4]benzodioxine-8,3′-indol]-2′(1′H)-one]
> 250 | > 50 | CN1C(=O)C2(COc3cc4c(cc32)OCCO4)c2c(Oc3ncccc3C(F)(F)F)cccc21 (stereo not drawn) [Example 16.55, 1′-methyl-4′-{[3-(trifluoromethyl)pyridin-2-yl]oxy}-2,3-dihydrospiro[furo[2,3-g][1,4]benzodioxine-8,3′-indol]-2′(1′H)-one]
198 to 201 | > 50 | CN1C(=O)C2(COc3cc4c(cc32)OCCO4)c2c(Oc3ccc(C(F)(F)F)cc3)cccc21 (stereo not drawn) [Example 16.56, 1′-methyl-4′-[4-(trifluoromethyl)phenoxy]-2,3-dihydrospiro[furo[2,3-g][1,4]benzodioxine-8,3′-indol]-2′(1′H)-one]
198 to 200 | > 50 | CN1C(=O)C2(COc3cc4c(cc32)OCCO4)c2c(OCc3ccccc3)cccc21 (stereo not drawn) [Example 16.57, 4′-(benzyloxy)-1′-methyl-2,3-dihydrospiro[furo[2,3-g][1,4]benzodioxine-8,3′-indol]-2′(1′H)-one]
157 to 159 | > 50 | CN1C(=O)C2(COc3cc4c(cc32)OCCO4)c2c(OCc3ncccc3C(F)(F)F)cccc21 (stereo not drawn) [Example 16.58, 1′-methyl-4′-{[3-(trifluoromethyl)pyridin-2-yl]methoxy}-2,3-dihydrospiro[furo[2,3-g][1,4]benzodioxine-8,3′-indol]-2′(1′H)-one]
226 to 228 | > 50 | CN1C(=O)[C@@]2(COc3cc4c(cc32)OCO4)c2c(Br)cccc21 [Example 16.63, (7R)-4′-bromo-1′-methylspiro[furo[2,3-f][1,3]benzodioxole-7,3′-indol]-2′(1′H)-one]
226 to 227 | > 50 | CN1C(=O)[C@]2(COc3cc4c(cc32)OCO4)c2c(Br)cccc21 [Example 16.64, (7S)-4′-bromo-1′-methylspiro[furo[2,3-f][1,3]benzodioxole-7,3′-indol]-2′(1′H)-one]
